According to ChEMBL document CHEMBL5143740, “Discovery of Novel Phosphoinositide-3-Kinase α Inhibitors with High Selectivity, Excellent Bioavailability, and Long-Acting Efficacy for Gastric Cancer” (J Med Chem, 2022):
Active and inactive are the calls of the source. No cut-off for these calls is given here.

Species on record: Homo sapiens
Test: Selectivity index, ratio of IC50 for inhibition of PI3Kdelta (unknown origin) to IC50 for inhibition of PI3Kalpha (unknown origin)
Details: not given

Row | SMILES | Ratio IC50
1 | O=C(O)c1ccc(CNc2nc3ccc(-c4nc(N5CCOCC5)nc(N5CCOCC5)n4)cc3o2)cc1 | 8.5

What follows are compounds tested against Phosphatidylinositol 4,5-bisphosphate 3-kinase catalytic subunit gamma isoform (Homo sapiens, UniProt P48736). Details: not given.
Phosphatidylinositol 4,5-bisphosphate 3-kinase catalytic subunit gamma isoform, sequence (P48736 whole entry, canonical isoform): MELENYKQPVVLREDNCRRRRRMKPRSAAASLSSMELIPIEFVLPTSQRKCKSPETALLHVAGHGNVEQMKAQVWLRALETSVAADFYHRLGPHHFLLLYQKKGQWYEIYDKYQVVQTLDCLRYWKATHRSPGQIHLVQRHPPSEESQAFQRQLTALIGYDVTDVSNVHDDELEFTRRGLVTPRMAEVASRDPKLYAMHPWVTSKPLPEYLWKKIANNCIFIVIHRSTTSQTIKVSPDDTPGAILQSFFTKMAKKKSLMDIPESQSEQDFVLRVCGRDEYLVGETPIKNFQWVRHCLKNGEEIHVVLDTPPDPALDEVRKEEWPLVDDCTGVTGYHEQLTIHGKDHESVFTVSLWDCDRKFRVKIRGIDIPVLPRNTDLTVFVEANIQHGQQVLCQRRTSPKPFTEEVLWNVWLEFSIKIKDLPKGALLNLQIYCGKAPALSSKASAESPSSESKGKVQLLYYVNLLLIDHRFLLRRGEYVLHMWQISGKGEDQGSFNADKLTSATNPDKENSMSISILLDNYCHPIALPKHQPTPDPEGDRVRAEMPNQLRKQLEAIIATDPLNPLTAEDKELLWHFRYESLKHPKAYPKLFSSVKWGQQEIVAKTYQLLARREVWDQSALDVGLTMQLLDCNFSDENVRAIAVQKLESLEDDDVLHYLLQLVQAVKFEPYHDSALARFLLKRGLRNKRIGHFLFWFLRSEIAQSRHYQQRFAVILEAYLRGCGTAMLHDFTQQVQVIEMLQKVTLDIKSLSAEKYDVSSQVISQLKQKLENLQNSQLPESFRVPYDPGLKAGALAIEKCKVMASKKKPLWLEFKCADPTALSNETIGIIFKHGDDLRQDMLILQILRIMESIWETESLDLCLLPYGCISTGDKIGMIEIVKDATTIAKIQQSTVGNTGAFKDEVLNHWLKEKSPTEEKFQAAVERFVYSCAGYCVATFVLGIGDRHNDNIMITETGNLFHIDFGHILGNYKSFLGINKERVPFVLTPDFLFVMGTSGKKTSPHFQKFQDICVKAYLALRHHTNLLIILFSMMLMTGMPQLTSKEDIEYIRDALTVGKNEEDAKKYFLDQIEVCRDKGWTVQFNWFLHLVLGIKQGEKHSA

Row | SMILES | IC50
2 | O=C(O)c1ccc(CNc2nc3ccc(-c4nc(N5CCOCC5)nc(N5CCOCC5)n4)cc3o2)cc1 | 3490 nM

Species on record: Homo sapiens
Test: Selectivity index, ratio of IC50 for inhibition of PI3Kgamma (unknown origin) to IC50 for inhibition of PI3Kalpha (unknown origin)
Details: not given

Row | SMILES | Ratio IC50
3 | O=C(O)c1ccc(CNc2nc3ccc(-c4nc(N5CCOCC5)nc(N5CCOCC5)n4)cc3o2)cc1 | 581

What follows are compounds tested on MGC-803 (assay: Antiproliferative activity against human MGC-803 cells assessed as inhibition of cell growth incubated for 72 hrs by CCK8 assay). Details: MGC-803, 72 h.
Format: functional, cell-based

Row | SMILES | IC50
4 | Cc1nc(NC(=O)N2CCC[C@H]2C(N)=O)sc1-c1ccnc(C(C)(C)C(F)(F)F)c1 [ALPELISIB] | 430 nM

These compounds were tested on MGC-803 (assay: Antitumor activity against human MGC-803 cells xenografted in BALB/c nude mouse assessed as tumor growth inhibition at 30 mg/kg, po administered every day for 3 weeks). Details: MGC-803, 504 h, read-out: TGI.
Format: functional

Row | SMILES | inhibition in vivo at 30 mg/kg
5 | CC(=O)O[C@H]1C(=O)[C@@]2(C)[C@H]([C@H](OC(=O)c3ccccc3)[C@]3(O)C[C@H](OC(=O)[C@H](O)[C@@H](NC(=O)c4ccccc4)c4ccccc4)C(C)=C1C3(C)C)[C@]1(OC(C)=O)CO[C@@H]1C[C@@H]2O [PACLITAXEL] | 60.3%

The compounds below were run against T1, Phosphatidylinositol 4,5-bisphosphate 3-kinase catalytic subunit delta isoform (Homo sapiens, UniProt O00329) (assay: Inhibition of PI3Kdelta (unknown origin) in presence of [33P]-ATP incubated for 2 hrs by hotspot kinase assay). Details: not given.
T1 sequence (O00329 whole entry): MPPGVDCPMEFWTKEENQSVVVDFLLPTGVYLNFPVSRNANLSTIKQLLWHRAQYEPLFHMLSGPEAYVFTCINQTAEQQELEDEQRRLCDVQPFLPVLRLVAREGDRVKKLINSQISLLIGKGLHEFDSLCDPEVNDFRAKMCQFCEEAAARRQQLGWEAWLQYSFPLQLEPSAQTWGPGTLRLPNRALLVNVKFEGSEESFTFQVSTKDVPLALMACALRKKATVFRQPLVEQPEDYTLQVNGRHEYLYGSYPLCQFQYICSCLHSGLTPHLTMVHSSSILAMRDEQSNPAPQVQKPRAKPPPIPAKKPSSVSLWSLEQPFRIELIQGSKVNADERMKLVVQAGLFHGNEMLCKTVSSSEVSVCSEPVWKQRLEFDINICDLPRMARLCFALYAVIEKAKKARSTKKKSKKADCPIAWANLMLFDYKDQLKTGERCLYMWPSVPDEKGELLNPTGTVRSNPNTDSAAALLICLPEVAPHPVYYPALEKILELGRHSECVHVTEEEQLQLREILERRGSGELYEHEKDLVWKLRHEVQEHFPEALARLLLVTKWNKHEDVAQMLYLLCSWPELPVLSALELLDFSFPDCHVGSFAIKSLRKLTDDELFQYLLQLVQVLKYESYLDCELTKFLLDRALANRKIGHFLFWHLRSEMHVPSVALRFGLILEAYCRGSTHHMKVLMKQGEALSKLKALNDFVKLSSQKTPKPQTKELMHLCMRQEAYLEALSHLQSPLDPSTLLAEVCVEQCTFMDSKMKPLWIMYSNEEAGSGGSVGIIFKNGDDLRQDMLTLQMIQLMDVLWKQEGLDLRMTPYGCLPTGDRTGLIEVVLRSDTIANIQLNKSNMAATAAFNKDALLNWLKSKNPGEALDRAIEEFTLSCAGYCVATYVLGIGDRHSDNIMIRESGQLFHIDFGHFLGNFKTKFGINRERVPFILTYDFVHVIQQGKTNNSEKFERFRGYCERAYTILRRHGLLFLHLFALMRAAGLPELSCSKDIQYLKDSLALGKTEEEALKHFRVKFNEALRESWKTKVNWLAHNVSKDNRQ

Row | SMILES | IC50
6 | O=C(O)c1ccc(CNc2nc3ccc(-c4nc(N5CCOCC5)nc(N5CCOCC5)n4)cc3o2)cc1 | 51 nM

These compounds were tested against Phosphatidylinositol 4,5-bisphosphate 3-kinase catalytic subunit alpha isoform (Homo sapiens, UniProt P42336) (assay: Inhibition of PI3Kalpha (unknown origin) using PIP2 as substrate in presence of ATP measured after 1 hr by ADP-Glo assay). Details: not given.
Phosphatidylinositol 4,5-bisphosphate 3-kinase catalytic subunit alpha isoform, sequence (P42336 whole entry, canonical isoform): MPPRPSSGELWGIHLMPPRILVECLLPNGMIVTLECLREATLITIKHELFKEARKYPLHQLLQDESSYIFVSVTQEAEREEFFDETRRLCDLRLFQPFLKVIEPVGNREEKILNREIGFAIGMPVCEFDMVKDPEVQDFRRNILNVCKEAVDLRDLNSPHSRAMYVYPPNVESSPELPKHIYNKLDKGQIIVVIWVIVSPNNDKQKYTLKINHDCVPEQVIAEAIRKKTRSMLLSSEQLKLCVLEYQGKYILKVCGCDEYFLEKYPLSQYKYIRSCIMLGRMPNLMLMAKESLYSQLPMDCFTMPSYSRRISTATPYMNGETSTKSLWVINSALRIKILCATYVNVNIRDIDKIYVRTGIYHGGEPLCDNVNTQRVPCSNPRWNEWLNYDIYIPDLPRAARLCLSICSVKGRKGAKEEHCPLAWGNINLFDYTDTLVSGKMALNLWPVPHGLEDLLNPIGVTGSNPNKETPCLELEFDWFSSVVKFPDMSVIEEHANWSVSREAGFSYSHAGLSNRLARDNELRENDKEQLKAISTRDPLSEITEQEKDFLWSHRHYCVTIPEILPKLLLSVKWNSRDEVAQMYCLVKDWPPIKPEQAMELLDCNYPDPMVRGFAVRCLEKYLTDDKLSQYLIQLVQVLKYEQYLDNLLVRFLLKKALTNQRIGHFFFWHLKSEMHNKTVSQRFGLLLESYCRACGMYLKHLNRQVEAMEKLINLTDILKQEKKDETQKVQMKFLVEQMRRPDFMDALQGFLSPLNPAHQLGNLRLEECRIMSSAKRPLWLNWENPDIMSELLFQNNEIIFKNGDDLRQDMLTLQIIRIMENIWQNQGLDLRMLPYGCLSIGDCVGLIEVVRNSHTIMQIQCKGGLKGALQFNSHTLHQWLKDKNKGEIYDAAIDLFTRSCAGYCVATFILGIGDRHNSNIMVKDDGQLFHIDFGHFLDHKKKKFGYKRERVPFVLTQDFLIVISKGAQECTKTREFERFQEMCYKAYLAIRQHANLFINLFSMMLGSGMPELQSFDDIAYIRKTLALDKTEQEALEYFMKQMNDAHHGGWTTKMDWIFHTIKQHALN

Row | IC50 | SMILES
7 | 47 nM | NC(=O)c1ccc(CNc2nc3cc(-c4nc(N5CCOCC5)nc(N5CCOCC5)n4)ccc3o2)cc1
8 | 6 nM | O=C(O)c1ccc(CNc2nc3ccc(-c4nc(N5CCOCC5)nc(N5CCOCC5)n4)cc3o2)cc1
9 | 2820 nM | c1cc2oc(NC3CCCC3)nc2cc1-c1nc(N2CCOCC2)nc(N2CCOCC2)n1
10 | 99 nM | COC(=O)c1ccc(CNc2nc3cc(-c4nc(N5CCOCC5)nc(N5CCOCC5)n4)ccc3o2)cc1
11 | 72 nM | O=[N+]([O-])c1ccc(CNc2nc3cc(-c4nc(N5CCOCC5)nc(N5CCOCC5)n4)ccc3o2)cc1
12 | 81 nM | COc1ccc(CNc2nc3cc(-c4nc(N5CCOCC5)nc(N5CCOCC5)n4)ccc3o2)cc1
13 | 311 nM | CC(C)c1ccc(CNc2nc3cc(-c4nc(N5CCOCC5)nc(N5CCOCC5)n4)ccc3o2)cc1
14 | 2220 nM | CN(C)c1nc2cc(-c3nc(N4CCOCC4)nc(N4CCOCC4)n3)ccc2o1
15 | 397 nM | CC(C)C(=O)Nc1nc2cc(-c3nc(N4CCOCC4)nc(N4CCOCC4)n3)ccc2o1
16 | 63 nM | c1ccc(CNc2nc3cc(-c4nc(N5CCOCC5)nc(N5CCOCC5)n4)ccc3o2)cc1
17 | 86 nM | N#Cc1ccc(CNc2nc3cc(-c4nc(N5CCOCC5)nc(N5CCOCC5)n4)ccc3o2)cc1
18 | 66 nM | CC(=O)Nc1nc2cc(-c3nc(N4CCOCC4)nc(N4CCOCC4)n3)ccc2o1
19 | 2770 nM | CC(C)Nc1nc2cc(-c3nc(N4CCOCC4)nc(N4CCOCC4)n3)ccc2o1
20 | 300 nM | FC(F)(F)c1ccc(CNc2nc3cc(-c4nc(N5CCOCC5)nc(N5CCOCC5)n4)ccc3o2)cc1

The next lines start with the compound.

Row | SMILES | IC50
21 | COC(=O)c1ccc(CNc2nc3ccc(-c4nc(N5CCN(C(C)=O)CC5)nc(N5CCN(C(C)=O)CC5)n4)cc3o2)cc1 | > 10000 nM
22 | CC(C)(C)OC(=O)N1CCN(c2nc(-c3ccc4nc(N)sc4c3)nc(N3CCOCC3)n2)CC1 | 432 nM
23 | Nc1nc2ccc(-c3nc(Nc4ccc5c(c4)OCO5)nc(Nc4ccc5c(c4)OCO5)n3)cc2o1 | > 10000 nM
24 | Nc1nc2cc(-c3nc(N4CCNCC4)nc(N4CCOCC4)n3)ccc2o1 | 569 nM
25 | Nc1nc2cc(-c3nc(Nc4cccc(C(F)(F)F)c4)nc(N4CCOCC4)n3)ccc2o1 | 1410 nM
26 | CC(=O)N1CCN(c2nc(-c3ccc4oc(N)nc4c3)nc(N3CCOCC3)n2)CC1 | 23 nM
27 | Nc1nc2ccc(-c3nc(N4CCOCC4)nc(N4CCOCC4)n3)cc2s1 | 357 nM
28 | CN(C)c1nc2ccc(-c3nc(Nc4ccc(C(F)(F)F)cc4)nc(N4CCOCC4)n3)cc2s1 | > 10000 nM
29 | O=C(Nc1nc2cc(-c3nc(N4CCOCC4)nc(N4CCOCC4)n3)ccc2o1)C1CCCCC1 | 7450 nM
30 | CC(C)N1CCN(c2nc(-c3ccc4oc(N)nc4c3)nc(N3CCOCC3)n2)CC1 | 1050 nM
31 | CC(C)(C)OC(=O)N1CCN(c2nc(-c3ccc4oc(N)nc4c3)nc(N3CCOCC3)n2)CC1 | 259 nM
32 | Nc1nc2cc(-c3nc(NC4CCC(C(F)(F)F)CC4)nc(N4CCOCC4)n3)ccc2o1 (stereo not drawn) | 703 nM
33 | Nc1nc2ccc(-c3nc(N4CCOCC4)nc(N4CCC(C(F)(F)F)CC4)n3)cc2s1 | 5360 nM
34 | CC(=O)Nc1nc2ccc(-c3nc(N4CCOCC4)nc(N4CCOCC4)n3)cc2s1 | 8750 nM
35 | CS(=O)(=O)N1CCN(c2nc(-c3ccc4oc(N)nc4c3)nc(N3CCOCC3)n2)CC1 | 32 nM
36 | CC(=O)N1CCN(c2nc(-c3ccc4nc(NCc5ccc(C(=O)O)cc5)oc4c3)nc(N3CCN(C(C)=O)CC3)n2)CC1 | > 10000 nM
37 | CN(C)c1nc2ccc(-c3nc(N4CCOCC4)nc(N4CCOCC4)n3)cc2s1 | > 10000 nM
38 | CS(=O)(=O)N1CCN(c2nc(-c3ccc4nc(N)oc4c3)nc(N3CCN(S(C)(=O)=O)CC3)n2)CC1 | > 10000 nM
39 | CN(C)c1nc2ccc(-c3nc(N4CCNCC4)nc(N4CCOCC4)n3)cc2s1 | > 10000 nM
40 | CCN1CCN(c2nc(-c3ccc4oc(N)nc4c3)nc(N3CCOCC3)n2)CC1 | 598 nM
41 | CC(=O)N1CCN(c2nc(-c3ccc4nc(N)sc4c3)nc(N3CCOCC3)n2)CC1 | 497 nM
42 | CC(=O)N1CCN(c2nc(-c3ccc4nc(N)oc4c3)nc(N3CCN(C(C)=O)CC3)n2)CC1 | > 10000 nM
43 | CN(C)c1nc2ccc(-c3nc(N4CCOCC4)nc(N4CCN(S(C)(=O)=O)CC4)n3)cc2s1 | > 10000 nM
44 | Nc1nc2cc(-c3nc(NC4CCOCC4)nc(N4CCOCC4)n3)ccc2o1 | 4240 nM

These compounds were tested against Phosphatidylinositol 4,5-bisphosphate 3-kinase catalytic subunit beta isoform (Homo sapiens, UniProt P42338) (assay: Inhibition of PI3Kbeta (unknown origin) in presence of [33P]-ATP incubated for 2 hrs by hotspot kinase assay). Details: not given.
Phosphatidylinositol 4,5-bisphosphate 3-kinase catalytic subunit beta isoform, sequence (P42338 whole entry, canonical isoform): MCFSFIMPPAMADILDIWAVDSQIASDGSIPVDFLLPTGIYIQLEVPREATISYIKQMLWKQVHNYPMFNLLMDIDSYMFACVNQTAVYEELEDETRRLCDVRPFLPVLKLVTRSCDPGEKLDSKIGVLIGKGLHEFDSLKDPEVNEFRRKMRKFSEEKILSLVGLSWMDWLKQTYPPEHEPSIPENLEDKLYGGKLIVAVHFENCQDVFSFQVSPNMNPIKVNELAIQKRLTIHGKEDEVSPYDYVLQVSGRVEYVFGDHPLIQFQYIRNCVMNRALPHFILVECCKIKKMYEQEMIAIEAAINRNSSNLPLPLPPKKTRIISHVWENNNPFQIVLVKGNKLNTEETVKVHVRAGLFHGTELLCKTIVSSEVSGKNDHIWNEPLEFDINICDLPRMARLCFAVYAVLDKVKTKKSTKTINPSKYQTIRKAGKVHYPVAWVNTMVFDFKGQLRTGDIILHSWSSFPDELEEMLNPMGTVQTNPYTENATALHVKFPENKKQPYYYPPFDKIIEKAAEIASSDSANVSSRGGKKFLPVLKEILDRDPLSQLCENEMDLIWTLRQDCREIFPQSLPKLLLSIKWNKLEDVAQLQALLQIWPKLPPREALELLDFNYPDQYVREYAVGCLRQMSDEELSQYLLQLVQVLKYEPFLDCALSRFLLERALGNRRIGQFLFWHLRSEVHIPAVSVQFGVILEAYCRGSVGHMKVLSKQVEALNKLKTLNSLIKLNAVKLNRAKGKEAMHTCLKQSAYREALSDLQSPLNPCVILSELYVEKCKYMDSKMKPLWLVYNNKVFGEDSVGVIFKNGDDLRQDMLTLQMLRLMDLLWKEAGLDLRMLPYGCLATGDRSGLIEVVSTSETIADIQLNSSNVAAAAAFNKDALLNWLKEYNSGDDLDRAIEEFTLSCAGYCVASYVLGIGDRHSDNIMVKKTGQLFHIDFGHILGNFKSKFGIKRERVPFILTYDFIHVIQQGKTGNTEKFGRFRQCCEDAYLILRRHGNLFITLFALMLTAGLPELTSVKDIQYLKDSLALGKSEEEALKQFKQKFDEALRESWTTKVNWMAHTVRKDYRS

Row | SMILES | IC50
45 | O=C(O)c1ccc(CNc2nc3ccc(-c4nc(N5CCOCC5)nc(N5CCOCC5)n4)cc3o2)cc1 | 100 nM

Species on record: Homo sapiens
Test: Selectivity index, ratio of IC50 for inhibition of PI3Kbeta (unknown origin) to IC50 for inhibition of PI3Kalpha (unknown origin)
Details: not given

Row | SMILES | Ratio IC50
46 | O=C(O)c1ccc(CNc2nc3ccc(-c4nc(N5CCOCC5)nc(N5CCOCC5)n4)cc3o2)cc1 | 16

These compounds were tested on MGC-803 (assay: Antitumor activity against human MGC-803 cells xenografted in BALB/c nude mouse assessed as reduction in tumor volume at 10 mg/kg, ip administered every day for 3 weeks by vernier caliper method). Details: not given.
Format: functional, organism-based

Row | SMILES | Activity
47 | CC(=O)O[C@H]1C(=O)[C@@]2(C)[C@H]([C@H](OC(=O)c3ccccc3)[C@]3(O)C[C@H](OC(=O)[C@H](O)[C@@H](NC(=O)c4ccccc4)c4ccccc4)C(C)=C1C3(C)C)[C@]1(OC(C)=O)CO[C@@H]1C[C@@H]2O [PACLITAXEL] | Active

What follows are compounds tested on MCF7 (assay: Antiproliferative activity against human MCF7 cells assessed as inhibition of cell growth incubated for 72 hrs by CCK8 assay). Details: MCF7, 72 h.
Format: functional, cell-based

Row | SMILES | IC50
48 | Cc1nc(NC(=O)N2CCC[C@H]2C(N)=O)sc1-c1ccnc(C(C)(C)C(F)(F)F)c1 [ALPELISIB] | 430 nM
